#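 Step 1: Grow cells in 96-well plates. Step 2: Expose to compound for 48 hours at 5 concentrations. Step 3: Interpolate endpoints linearly; if unreached, use highest concentration. Abbreviation: GI50, concentration required for 50% inhibition of growth.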 Active and inactive are the calls of the source. Cut-off read from the data, not from the text of the source: active = GI50 up to about 1.1 µM and inactive = higher.
# Experiments:
# Assay in all cases: NCI-60 cell line screen, 48 h
# CCRF-CEM = tested on: CCRF-CEM
# SNB-19 = tested on: SNB-19
# A549 = tested on: A549
# HL-60 = tested on: HL-60
# SK-MEL-28 = tested on: SK-MEL-28
# SN12C = tested on: SN12C
# DU-145 = tested on: DU-145
# SR = tested on: SR
# OVCAR-3 = tested on: OVCAR-3
# KM12 = tested on: KM12
# MDA-MB-231 = tested on: MDA-MB-231
# SF-539 = tested on: SF-539
# TK-10 = tested on: TK-10
# NCI-H226 = tested on: NCI-H226
# HOP-92 = tested on: HOP-92
# U-251 = tested on: U-251
# ACHN = tested on: ACHN
# Malme-3M = tested on: Malme-3M
# IGROV-1 = tested on: IGROV-1
# CAKI-1 = tested on: CAKI-1
# MCF7 = tested on: MCF7
# BT-549 = tested on: BT-549
# A498 = tested on: A498
# SK-MEL-5 = tested on: SK-MEL-5
# M14 = tested on: M14
# SK-OV-3 = tested on: SK-OV-3
# UACC-62 = tested on: UACC-62
# HCT-15 = tested on: HCT-15
# K562 = tested on: K562
# PC-3 = tested on: PC-3
# EKVX = tested on: EKVX
# UO-31 = tested on: UO-31
# Hs-578T = tested on: Hs-578T
# NCI-H460 = tested on: NCI-H460
# SF-268 = tested on: SF-268
# MDA-MB-435 = tested on: MDA-MB-435
# LOX IMVI = tested on: LOX IMVI
# NCI-H23 = tested on: NCI-H23
# NCI-H522 = tested on: NCI-H522
# MOLT-4 = tested on: MOLT-4
# UACC-257 = tested on: UACC-257
# T47D = tested on: T47D
# HOP-62 = tested on: HOP-62
# 786-0 = tested on: 786-0
# SF-295 = tested on: SF-295
# SK-MEL-2 = tested on: SK-MEL-2
# RPMI-8226 = tested on: RPMI-8226
# HCC 2998 = tested on: HCC 2998
# MDA-N = tested on: MDA-N
# OVCAR-5 = tested on: OVCAR-5
# COLO 205 = tested on: COLO 205
# OVCAR-8 = tested on: OVCAR-8
# RXF 393 = tested on: RXF 393
# SW-620 = tested on: SW-620
# HCT-116 = tested on: HCT-116
# NCI/ADR-RES = tested on: NCI/ADR-RES
# SNB-75 = tested on: SNB-75
# OVCAR-4 = tested on: OVCAR-4
structure (smiles),measurement,setting,value
O=C1NC(O)CCN1C1CC(O)C(CO)O1 (configuration not stated),GI50,CCRF-CEM,> 100 µM (inactive)
same,GI50,SNB-19,> 100 µM (inactive)
same,GI50,A549,> 100 µM (inactive)
same,GI50,HL-60,> 100 µM (inactive)
same,GI50,SK-MEL-28,> 100 µM (inactive)
same,GI50,SN12C,> 100 µM (inactive)
same,GI50,DU-145,> 100 µM (inactive)
same,GI50,SR,> 100 µM (inactive)
same,GI50,OVCAR-3,> 100 µM (inactive)
same,GI50,KM12,74.1 µM (inactive)
same,GI50,MDA-MB-231,> 100 µM (inactive)
same,GI50,SF-539,> 100 µM (inactive)
same,GI50,TK-10,> 100 µM (inactive)
same,GI50,NCI-H226,> 100 µM (inactive)
same,GI50,HOP-92,> 100 µM (inactive)
same,GI50,U-251,> 100 µM (inactive)
same,GI50,ACHN,> 100 µM (inactive)
same,GI50,Malme-3M,> 100 µM (inactive)
same,GI50,IGROV-1,> 100 µM (inactive)
same,GI50,CAKI-1,> 100 µM (inactive)
same,GI50,MCF7,> 100 µM (inactive)
same,GI50,BT-549,> 100 µM (inactive)
same,GI50,A498,> 100 µM (inactive)
same,GI50,SK-MEL-5,> 100 µM (inactive)
same,GI50,M14,> 100 µM (inactive)
same,GI50,SK-OV-3,> 100 µM (inactive)
same,GI50,UACC-62,> 100 µM (inactive)
same,GI50,HCT-15,> 100 µM
same,GI50,K562,> 100 µM (inactive)
same,GI50,PC-3,> 100 µM (inactive)
same,GI50,EKVX,> 100 µM (inactive)
same,GI50,UO-31,> 100 µM (inactive)
same,GI50,Hs-578T,> 100 µM (inactive)
same,GI50,NCI-H460,> 100 µM (inactive)
same,GI50,SF-268,> 100 µM (inactive)
same,GI50,MDA-MB-435,> 100 µM (inactive)
same,GI50,LOX IMVI,> 100 µM (inactive)
same,GI50,NCI-H23,> 100 µM (inactive)
same,GI50,NCI-H522,> 100 µM (inactive)
same,GI50,MOLT-4,> 100 µM (inactive)
same,GI50,UACC-257,> 100 µM (inactive)
same,GI50,T47D,> 100 µM (inactive)
same,GI50,HOP-62,> 100 µM (inactive)
same,GI50,786-0,> 100 µM (inactive)
same,GI50,SF-295,> 100 µM (inactive)
same,GI50,SK-MEL-2,> 100 µM (inactive)
same,GI50,RPMI-8226,> 100 µM (inactive)
same,GI50,HCC 2998,> 100 µM (inactive)
same,GI50,MDA-N,> 100 µM (inactive)
same,GI50,OVCAR-5,> 100 µM (inactive)
same,GI50,COLO 205,> 100 µM (inactive)
same,GI50,OVCAR-8,> 100 µM (inactive)
same,GI50,RXF 393,> 100 µM (inactive)
same,GI50,SW-620,> 100 µM (inactive)
same,GI50,HCT-116,> 100 µM (inactive)
same,GI50,NCI/ADR-RES,> 100 µM (inactive)
O=[N+]([O-])c1ccc2c(c1)c1nn2CCCCOc2nn(c3ccc([N+](=O)[O-])cc23)CCCCO1,GI50,SNB-19,> 100 µM (inactive)
same,GI50,HL-60,> 100 µM (inactive)
same,GI50,SK-MEL-28,> 100 µM (inactive)
same,GI50,SN12C,> 100 µM (inactive)
same,GI50,DU-145,> 100 µM (inactive)
same,GI50,SR,> 100 µM (inactive)
same,GI50,SNB-75,> 100 µM (inactive)
same,GI50,OVCAR-3,> 100 µM (inactive)
same,GI50,MDA-MB-231,> 100 µM (inactive)
same,GI50,SF-539,> 100 µM (inactive)
same,GI50,NCI-H226,> 100 µM (inactive)
same,GI50,OVCAR-4,> 100 µM (inactive)
same,GI50,HOP-92,> 100 µM (inactive)
same,GI50,U-251,> 100 µM (inactive)
same,GI50,ACHN,> 100 µM (inactive)
same,GI50,Malme-3M,> 100 µM (inactive)
same,GI50,IGROV-1,> 100 µM (inactive)
same,GI50,CAKI-1,> 100 µM (inactive)
same,GI50,MCF7,> 100 µM (inactive)
same,GI50,BT-549,> 100 µM (inactive)
same,GI50,A498,> 100 µM (inactive)
same,GI50,M14,> 100 µM (inactive)
same,GI50,SK-OV-3,> 100 µM (inactive)
same,GI50,HCT-15,> 100 µM
same,GI50,K562,> 100 µM (inactive)
same,GI50,PC-3,> 100 µM (inactive)
same,GI50,EKVX,> 100 µM (inactive)
same,GI50,UO-31,> 100 µM (inactive)
same,GI50,Hs-578T,> 100 µM (inactive)
same,GI50,NCI-H460,> 100 µM (inactive)
same,GI50,SF-268,> 100 µM (inactive)
same,GI50,MDA-MB-435,> 100 µM (inactive)
same,GI50,LOX IMVI,> 100 µM (inactive)
same,GI50,NCI-H23,> 100 µM (inactive)
same,GI50,NCI-H522,> 100 µM (inactive)
same,GI50,MOLT-4,> 100 µM (inactive)
same,GI50,UACC-257,> 100 µM (inactive)
same,GI50,T47D,> 100 µM (inactive)
same,GI50,HOP-62,0.743 µM (active)
same,GI50,786-0,> 100 µM (inactive)
same,GI50,SF-295,> 100 µM (inactive)
same,GI50,SK-MEL-2,> 100 µM (inactive)
same,GI50,RPMI-8226,> 100 µM (inactive)
same,GI50,HCC 2998,> 100 µM (inactive)
same,GI50,MDA-N,> 100 µM (inactive)
same,GI50,OVCAR-5,> 100 µM (inactive)
same,GI50,COLO 205,> 100 µM (inactive)
same,GI50,OVCAR-8,> 100 µM (inactive)
same,GI50,RXF 393,> 100 µM (inactive)
same,GI50,HCT-116,> 100 µM (inactive)
same,GI50,NCI/ADR-RES,> 100 µM (inactive)

# — ChEMBL document CHEMBL1201862, “PubChem BioAssay data set” (2004)
